Data published in paper PMC8670630 (Bioorganic & medicinal chemistry letters, 2021).

How the values were obtained:
[1] = Mouse plasma protein binding; format: in vitro ADME
Caco-2 = Caco-2 permeability; format: in vitro ADME
[2] = molecular target: human sulfide:quinone oxidoreductase (SQOR) (Homo sapiens, UniProt Q9Y6N5); test: SQOR inhibition; format: biochemical
[3] = test system: murine model of heart failure; settings: ref [21],[22]; cited from earlier work
mammalian cells = settings: in vitro tests; ref [21],[22]; cited from earlier work
CoQ-binding site in SQOR = settings: in vitro tests; ref [21],[22]; cited from earlier work

Sequence of human sulfide:quinone oxidoreductase (SQOR) (Q9Y6N5 whole entry): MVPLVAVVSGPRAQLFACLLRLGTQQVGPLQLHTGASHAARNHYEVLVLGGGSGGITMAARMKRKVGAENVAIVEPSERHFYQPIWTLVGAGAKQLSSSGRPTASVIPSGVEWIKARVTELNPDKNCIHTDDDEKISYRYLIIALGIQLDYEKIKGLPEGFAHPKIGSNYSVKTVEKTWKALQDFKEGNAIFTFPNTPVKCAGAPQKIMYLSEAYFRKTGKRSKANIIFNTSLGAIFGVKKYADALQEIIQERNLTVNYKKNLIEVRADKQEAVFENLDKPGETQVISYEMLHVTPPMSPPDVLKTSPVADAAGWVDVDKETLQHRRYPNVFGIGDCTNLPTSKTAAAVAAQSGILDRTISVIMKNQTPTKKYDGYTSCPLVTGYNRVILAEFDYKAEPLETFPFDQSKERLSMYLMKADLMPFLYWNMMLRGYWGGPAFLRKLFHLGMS

Structure (SMILES): COc1nc(-c2ncccc2C)cc(-c2ccc(F)cc2)c1C#N [Compound 15]
- Mouse Plasma Protein Binding (% bound) [1]: 99.64 % bound
- Caco-2 permeability A→B (Caco-2; A→B): 0.455 1 × 10^−6 cm/s
- Caco-2 permeability B→A (Caco-2; B→A): 0.769 1 × 10^−6 cm/s

Structure (SMILES): COc1nc(-c2ccccc2)cc(-c2ccc(Cl)cc2Cl)c1C#N [Compound 7]
- activity in IC50 assay (in words) [2]: inactivity

Structure (SMILES): CCOc1nc(-c2ccccc2)nc(-c2ccccc2)c1C#N [Compound 24]
- fold less active than the equivalent pyridine 21 ([2]; SQOR inhibition, 24 versus 21): 2 fold

Structure (SMILES): COc1nc(-c2ncccc2C)cc(-c2ccc(N)cc2)c1C#N [Compound 19]
- Mouse Plasma Protein Binding (% bound) [1]: 97.8 % bound
- effect on cardiac function and progression to heart failure [3]: preserves cardiac function and prevents the progression to heart failure
- toxicity in mammalian cells (mammalian cells): little or no toxicity
- specificity for the CoQ-binding site in SQOR (CoQ-binding site in SQOR): high degree of specificity
